Assay in all cases: Screen Quest Fluo-8 No Wash Calcium Assay (Bz-ATP evoked Ca2+ influx, FLIPR)
Holding throughout (format): cell-based

Assay [1] has as its target T1, P2X7 receptor (Rattus norvegicus, UniProt Q64663).
T1 construct: rP2X7 (IC50; nM); other: rP2X7; HEK-293 cells stably transfected with P2X7 receptor, Bz-ATP at EC80, Fluo-8 NW; potency
T1 sequence (Q64663 1-595): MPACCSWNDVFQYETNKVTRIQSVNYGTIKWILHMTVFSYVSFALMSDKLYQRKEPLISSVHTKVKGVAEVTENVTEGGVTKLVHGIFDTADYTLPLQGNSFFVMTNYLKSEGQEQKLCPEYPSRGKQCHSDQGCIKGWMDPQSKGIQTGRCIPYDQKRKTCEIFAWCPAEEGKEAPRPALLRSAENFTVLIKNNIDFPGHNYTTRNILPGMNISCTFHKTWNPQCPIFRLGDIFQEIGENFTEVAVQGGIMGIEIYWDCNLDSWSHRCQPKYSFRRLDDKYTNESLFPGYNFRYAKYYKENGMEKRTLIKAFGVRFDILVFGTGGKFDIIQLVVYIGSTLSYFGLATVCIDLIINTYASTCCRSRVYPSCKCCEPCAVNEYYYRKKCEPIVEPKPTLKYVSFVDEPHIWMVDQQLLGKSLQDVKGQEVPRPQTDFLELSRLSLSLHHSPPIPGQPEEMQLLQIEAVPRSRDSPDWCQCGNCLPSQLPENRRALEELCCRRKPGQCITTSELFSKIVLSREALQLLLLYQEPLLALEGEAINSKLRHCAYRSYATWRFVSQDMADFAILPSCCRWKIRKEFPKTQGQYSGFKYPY
Conditions: rP2X7; HEK-293 cells stably transfected with P2X7 receptor, Bz-ATP at EC80, Fluo-8 NW; potency ranges A-D. The gist of the method:
(§1)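 HEK-293 cells stably expressing P2X7 were loaded with Fluo-8 NW for 1 h at RT, then given compound, and 5 min later Bz-ATP at EC80. Fluorescence was read by FLIPR in low divalent cation buffer (0.3 mM Ca2+, 0 mM Mg2+). IC50 came from percent inhibition relative to reference antagonist A438079.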

The target of assay [2] is T2, P2X7 receptor (Mus musculus, UniProt Q9Z1M0).
T2 construct: mP2X7 (IC50; nM); other: mP2X7; HEK-293 cells stably transfected with P2X7 receptor, Bz-ATP at EC80, Fluo-8 NW; potency
T2 sequence (Q9Z1M0 1-595): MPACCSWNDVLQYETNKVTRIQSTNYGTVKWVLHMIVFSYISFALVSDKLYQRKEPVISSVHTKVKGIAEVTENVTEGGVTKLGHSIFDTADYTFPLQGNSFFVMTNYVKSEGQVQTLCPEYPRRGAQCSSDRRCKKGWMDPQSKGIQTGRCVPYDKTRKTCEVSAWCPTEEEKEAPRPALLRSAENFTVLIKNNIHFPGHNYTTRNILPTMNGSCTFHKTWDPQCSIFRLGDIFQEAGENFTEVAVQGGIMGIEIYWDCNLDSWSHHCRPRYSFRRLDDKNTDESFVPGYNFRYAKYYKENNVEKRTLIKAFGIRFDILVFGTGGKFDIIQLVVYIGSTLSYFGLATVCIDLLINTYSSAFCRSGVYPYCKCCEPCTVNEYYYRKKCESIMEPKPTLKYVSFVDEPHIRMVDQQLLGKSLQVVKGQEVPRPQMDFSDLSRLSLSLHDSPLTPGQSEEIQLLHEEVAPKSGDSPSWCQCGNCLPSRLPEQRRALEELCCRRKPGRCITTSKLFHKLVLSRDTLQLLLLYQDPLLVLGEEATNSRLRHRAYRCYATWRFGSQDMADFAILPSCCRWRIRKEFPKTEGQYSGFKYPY
Conditions: mP2X7; HEK-293 cells stably transfected with P2X7 receptor, Bz-ATP at EC80, Fluo-8 NW; potency ranges A-D. The gist of the method:
as §1

The target of assay [3] is T3, P2X7 receptor (Homo sapiens, UniProt Q99572).
T3 sequence (Q99572 1-595): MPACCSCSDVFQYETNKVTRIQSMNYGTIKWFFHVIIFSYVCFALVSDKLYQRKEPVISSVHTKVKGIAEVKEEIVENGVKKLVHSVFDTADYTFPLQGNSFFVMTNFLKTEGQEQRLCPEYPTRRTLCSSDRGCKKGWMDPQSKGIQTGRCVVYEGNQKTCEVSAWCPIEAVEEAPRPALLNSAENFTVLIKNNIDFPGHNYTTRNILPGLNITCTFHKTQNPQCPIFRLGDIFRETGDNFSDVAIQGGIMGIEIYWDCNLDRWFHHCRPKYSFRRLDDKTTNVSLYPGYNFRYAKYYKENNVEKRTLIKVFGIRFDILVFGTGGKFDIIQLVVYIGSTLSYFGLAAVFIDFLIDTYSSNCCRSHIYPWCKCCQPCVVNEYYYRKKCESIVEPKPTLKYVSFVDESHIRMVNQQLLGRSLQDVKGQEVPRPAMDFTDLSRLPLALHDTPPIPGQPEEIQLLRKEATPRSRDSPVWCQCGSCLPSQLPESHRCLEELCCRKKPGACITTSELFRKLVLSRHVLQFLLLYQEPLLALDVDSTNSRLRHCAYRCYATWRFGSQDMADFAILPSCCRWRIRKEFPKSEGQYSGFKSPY
On the set-up: hP2X7 (IC50; nM); other: hP2X7; HEK-293 cells stably transfected with P2X7 receptor, Bz-ATP at EC80, Fluo-8 NW; potency. The conditions noted are these: hP2X7; HEK-293 cells stably transfected with P2X7 receptor, Bz-ATP at EC80, Fluo-8 NW; potency ranges A-D. The gist of the method: as §1

This passage reports IC50 results from patent US11623919B2, “Heterocyclic P2X7 antagonists” (AXXAM S.P.A., priority 2017, dated 2023).

SMILES strings stand for the structures. Where only a bound is given, the exact number is not on record here.

For `O=c1onc(CC2CCC(F)(F)CC2)n1Cc1ncco1` [Example 194, 3-[(4,4-difluorocyclohexyl)methyl]-4-[(1,3-oxazol-2-yl)methyl]-1,2,4-oxadiazol-5(4H)-one], the IC50 in assay [1] was 1000 to 10000 nM; in assay [2], > 10000 nM; in assay [3], 1000 to 10000 nM.
Consider `Cc1cc(Cn2c(CC3CCC(F)(F)CC3)noc2=O)n(C)n1` [Example 195, 3-[(4,4-difluorocyclohexyl)methyl]-4-[(1,3-dimethyl-1H-pyrazol-5-yl)methyl]-1,2,4-oxadiazol-5(4H)-one], for which the IC50 in assay [1], in assay [2] and in assay [3] was 200 to 1000 nM in each case.
For the compound `Cc1nc(Cn2c(CC3CCC(F)(F)CC3)noc2=O)no1` [Example 196, 3-[(4,4-difluorocyclohexyl)methyl]-4-[(5-methyl-1,2,4-oxadiazol-3-yl)methyl]-1,2,4-oxadiazol-5(4H)-one], the IC50 in assay [1], in assay [2] and in assay [3] was > 10000 nM throughout.
Regarding `Cc1noc(Cn2c(CC3CCC(F)(F)CC3)noc2=O)n1` [Example 197, 3-[(4,4-difluorocyclohexyl)methyl]-4-[(3-methyl-1,2,4-oxadiazol-5-yl)methyl]-1,2,4-oxadiazol-5(4H)-one], the IC50 in assay [1], in assay [2] and in assay [3] was > 10000 nM each time.
As to `O=c1onc(CC2CCC(F)(F)CC2)n1Cn1ccc(C(F)(F)F)n1` [Example 198, 3-[(4,4-difluorocyclohexyl)methyl]-4-{[3-(trifluoromethyl)-1H-pyrazol-1-yl]methyl}-1,2,4-oxadiazol-5(4H)-one], the figures for the IC50 in assay [1], in assay [2] and in assay [3] were 1000 to 10000 nM, 1000 to 10000 nM and > 10000 nM, respectively.
Take `O=c1onc(CC2CCC(F)(F)CC2)n1Cc1ccno1` [Example 199, 3-[(4,4-difluorocyclohexyl)methyl]-4-[(1,2-oxazol-5-yl)methyl]-1,2,4-oxadiazol-5(4H)-one]: the half-maximal inhibitory concentration (IC50) in assay [1] was 1000 to 10000 nM; in assay [2], 1000 to 10000 nM; in assay [3], > 10000 nM.
As for `Cc1ncsc1Cn1c(CC2CCC(F)(F)CC2)noc1=O` [Example 200, 3-[(4,4-difluorocyclohexyl)methyl]-4-[(4-methyl-1,3-thiazol-5-yl)methyl]-1,2,4-oxadiazol-5(4H)-one], the IC50 in assay [1], in assay [2] and in assay [3] was 200 to 1000 nM in each case.
Turning to `Cn1ccnc1Cn1c(CC2CCC(F)(F)CC2)noc1=O` [Example 201, 3-[(4,4-difluorocyclohexyl)methyl]-4-[(1-methyl-1H-imidazol-2-yl)methyl]-4,5-dihydro-1,2,4-oxadiazol-5-one], the IC50 in assay [1] was 1000 to 10000 nM; in assay [2] it was > 10000 nM; in assay [3], > 10000 nM.
For `O=c1snc(CC2CCC(F)(F)CC2)n1Cc1c(F)cccc1Cl` [Example 203, 4-[(2-chloro-6-fluorophenyl)methyl]-3-[(4,4-difluorocyclohexyl)methyl]-4,5-dihydro-1,2,4-thiadiazol-5-one], the IC50 in assay [1], in assay [2] and in assay [3] was < 200 nM each time.
For the compound `O=c1onc(CC2CCC(F)(F)C2)n1Cc1ccc(F)cc1` (stereo not drawn) [Example 204, 3-[(3,3-difluorocyclopentyl)methyl]-4-[(4-fluorophenyl)methyl]-4,5-dihydro-1,2,4-oxadiazol-5-one], the IC50 in assay [1], in assay [2] and in assay [3] was > 10000 nM throughout.
Turning to `O=c1onc(CC2CCC(F)(F)C2)n1Cc1c(F)cccc1Cl` (stereo not drawn) [Example 205, 4-[(2-chloro-6-fluorophenyl)methyl]-3-[(3,3-difluorocyclopentyl)methyl]-4,5-dihydro-1,2,4-oxadiazol-5-one], the figures for the IC50 in assay [1], in assay [2] and in assay [3] were < 200 nM, 200 to 1000 nM and < 200 nM, respectively.
Consider `Cc1noc(C)c1Cc1noc(=O)n1Cc1ccc(F)cc1` [Example 208, 3-[(dimethyl-1,2-oxazol-4-yl)methyl]-4-[(4-fluorophenyl)methyl]-4,5-dihydro-1,2,4-oxadiazol-5-one], for which the concentration for half-maximal inhibition (IC50) in assay [1] is 1000 to 10000 nM; in assay [2], > 10000 nM; in assay [3], 1000 to 10000 nM.
In the case of `Cc1noc(C)c1Cc1noc(=O)n1Cc1c(F)cccc1Cl` [Example 209, 4-[(2-chloro-6-fluorophenyl)methyl]-3-[(dimethyl-1,2-oxazol-4-yl)methyl]-4,5-dihydro-1,2,4-oxadiazol-5-one], the IC50 was > 10000 nM in assay [1], > 10000 nM in assay [2] and 1000 to 10000 nM in assay [3].
For the compound `Cc1nn(C)c(C)c1Cc1noc(=O)n1Cc1ccc(F)cc1` [Example 212, 4-[(4-fluorophenyl)methyl]-3-[(trimethyl-1H-pyrazol-4-yl)methyl]-4,5-dihydro-1,2,4-oxadiazol-5-one], the results for the IC50 in assay [1], in assay [2] and in assay [3] were > 10000 nM, > 10000 nM and 1000 to 10000 nM, respectively.
On to `Cc1nn(C)c(C)c1Cc1noc(=O)n1Cc1c(F)cccc1Cl` [Example 213, 4-[(2-chloro-6-fluorophenyl)methyl]-3-[(trimethyl-1H-pyrazol-4-yl)methyl]-4,5-dihydro-1,2,4-oxadiazol-5-one], for which the IC50 in assay [1] was > 10000 nM; in assay [2], > 10000 nM; in assay [3], 1000 to 10000 nM.
Regarding `Cc1nn(C)c(C)c1Cc1noc(=O)n1CC1CCCCC1` [Example 214, 4-(cyclohexylmethyl)-3-[(trimethyl-1H-pyrazol-4-yl)methyl]-4,5-dihydro-1,2,4-oxadiazol-5-one], the IC50 was 200 to 1000 nM in assay [1], 1000 to 10000 nM in assay [2] and < 200 nM in assay [3].
On to `Cc1nn(C)c(C)c1Cc1noc(=O)n1CC1CCC(F)(F)CC1` [Example 215, 4-[(4,4-difluorocyclohexyl)methyl]-3-[(trimethyl-1H-pyrazol-4-yl)methyl]-4,5-dihydro-1,2,4-oxadiazol-5-one], for which the IC50 in assay [1] was 200 to 1000 nM; in assay [2] it was 1000 to 10000 nM; in assay [3] it was < 200 nM.
As to `Cc1ncccc1Cc1noc(=O)n1Cc1ccc(F)cc1` [Example 216, 4-[(4-fluorophenyl)methyl]-3-[(2-methylpyridin-3-yl)methyl]-4,5-dihydro-1,2,4-oxadiazol-5-one], the values for the IC50 in assay [1], in assay [2] and in assay [3] were 1000 to 10000 nM, > 10000 nM and 1000 to 10000 nM, respectively.

A word on the IC50: it is the concentration at which inhibition is half-maximal.
